{"source": "patent US20230017786A1", "about": "“DEXTR[…] A DISEASE-MODIFYING TREATMENT FOR NEUROPSYCHIATRIC DISORDERS AND DISEASES” (priority 2020, published 2023)", "key": {"[1]": {"target": "T1, human NMDA receptor GluN1-GluN2A (Homo sapiens, UniProt Q05586+Q12879)", "T1 construct": "expressed in transfected cells; host or cells: CHO", "T1 sequence (Q12879 23-1464, other chains not shown)": "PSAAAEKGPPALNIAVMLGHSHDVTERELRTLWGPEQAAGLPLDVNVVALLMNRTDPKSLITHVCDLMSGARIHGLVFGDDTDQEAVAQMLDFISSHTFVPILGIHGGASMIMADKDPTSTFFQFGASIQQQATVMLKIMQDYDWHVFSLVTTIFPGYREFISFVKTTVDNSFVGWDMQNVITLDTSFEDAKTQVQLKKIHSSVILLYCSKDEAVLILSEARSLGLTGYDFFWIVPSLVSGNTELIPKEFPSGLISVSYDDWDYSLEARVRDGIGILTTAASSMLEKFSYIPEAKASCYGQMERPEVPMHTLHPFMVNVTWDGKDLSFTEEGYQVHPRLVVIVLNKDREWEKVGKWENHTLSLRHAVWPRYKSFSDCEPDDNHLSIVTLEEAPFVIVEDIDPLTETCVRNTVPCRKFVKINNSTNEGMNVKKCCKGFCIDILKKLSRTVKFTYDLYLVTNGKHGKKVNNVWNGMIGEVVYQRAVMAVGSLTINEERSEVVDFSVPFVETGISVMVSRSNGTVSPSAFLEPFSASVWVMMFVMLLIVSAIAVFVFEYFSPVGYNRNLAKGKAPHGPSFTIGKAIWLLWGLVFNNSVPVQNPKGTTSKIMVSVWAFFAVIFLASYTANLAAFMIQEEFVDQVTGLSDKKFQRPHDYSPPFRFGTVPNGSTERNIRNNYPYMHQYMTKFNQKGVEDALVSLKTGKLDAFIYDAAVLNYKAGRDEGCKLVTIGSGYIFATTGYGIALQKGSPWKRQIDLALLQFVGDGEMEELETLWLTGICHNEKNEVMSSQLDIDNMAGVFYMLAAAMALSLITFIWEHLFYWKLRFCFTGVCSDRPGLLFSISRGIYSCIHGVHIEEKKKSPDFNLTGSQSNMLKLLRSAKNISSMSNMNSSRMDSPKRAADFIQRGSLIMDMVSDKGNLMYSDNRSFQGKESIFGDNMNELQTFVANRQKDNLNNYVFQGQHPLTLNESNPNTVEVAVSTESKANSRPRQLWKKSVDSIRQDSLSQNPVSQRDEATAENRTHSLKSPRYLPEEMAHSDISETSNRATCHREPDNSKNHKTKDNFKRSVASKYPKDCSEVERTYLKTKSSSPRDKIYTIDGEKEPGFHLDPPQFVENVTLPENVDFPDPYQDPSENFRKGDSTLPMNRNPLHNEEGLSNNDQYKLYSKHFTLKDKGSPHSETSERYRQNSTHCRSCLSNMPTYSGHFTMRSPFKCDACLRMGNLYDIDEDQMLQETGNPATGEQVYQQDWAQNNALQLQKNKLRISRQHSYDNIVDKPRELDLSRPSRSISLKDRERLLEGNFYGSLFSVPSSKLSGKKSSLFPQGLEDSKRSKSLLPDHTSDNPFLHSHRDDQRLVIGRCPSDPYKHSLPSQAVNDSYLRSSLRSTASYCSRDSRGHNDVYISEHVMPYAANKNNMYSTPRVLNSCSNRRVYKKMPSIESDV", "assay": "FLIPR calcium assay, quinolinic acid, gentamicin, dextromethadone (Example 5 Part II), GluN1-GluN2A-CHO", "format": "cell-based", "parameters": "calcium response (mean±SEM): unit not given here", "conditions": "for calcium response (mean±SEM): GluN2A, n=42", "description": "(§1) Quinolinic acid or gentamicin CRCs were also produced, in presence of 10 μM glycine.\n(§2) Test items were evaluated in FLIPR for their ability to modulate, alone or in combination, calcium entry in presence of […], using four CHO cell lines expressing diheteromeric human NMDA receptor (NMDAR): GluN-/GluN2A-CHO, GluN1-GluN2B-CHO, GluN1-GluN2C-CHO, GluN1-GluN2D-CHO.\n(§3) The first aim of the study was to evaluate quinolinic acid or gentamicin CRC effect in the presence of 10 μM glycine.\n(§4) FLIPR determination of intracellular calcium level was used as a read-out for NMDAR activation.\n(§5) 400× compound plate was stored at −20° C. till FLIPR experimental day.\n(§6) A 4× compound plate was generated from 400× compound plate by addition of up to 30 μl/well of compound buffer on FLIPR experimental day.\n(§7) A FLIPR system was used to monitor intracellular calcium level in NMDAR cell lines, pre-loaded for 1 hour with Fluo-4, and then washed with assay buffer.\n(§8) Y=Bottom+(Top−Bottom)/(1+10^((LogEC50−X)*HillSlope))\n(§9) Test item CRC data were plotted by Prism 8 GraphPad software, in the different experimental conditions. And, column analysis, performed by Prism 8 GraphPad software, was one way ANOVA followed by Tukey's multiple comparisons test, with a single pooled variance."}, "[2]": {"target": "T2, human NMDA receptor GluN1-GluN2B (Homo sapiens, UniProt Q05586+Q13224)", "T2 construct": "expressed in transfected cells; host or cells: CHO", "T2 sequence (Q13224 27-1484, other chains not shown)": "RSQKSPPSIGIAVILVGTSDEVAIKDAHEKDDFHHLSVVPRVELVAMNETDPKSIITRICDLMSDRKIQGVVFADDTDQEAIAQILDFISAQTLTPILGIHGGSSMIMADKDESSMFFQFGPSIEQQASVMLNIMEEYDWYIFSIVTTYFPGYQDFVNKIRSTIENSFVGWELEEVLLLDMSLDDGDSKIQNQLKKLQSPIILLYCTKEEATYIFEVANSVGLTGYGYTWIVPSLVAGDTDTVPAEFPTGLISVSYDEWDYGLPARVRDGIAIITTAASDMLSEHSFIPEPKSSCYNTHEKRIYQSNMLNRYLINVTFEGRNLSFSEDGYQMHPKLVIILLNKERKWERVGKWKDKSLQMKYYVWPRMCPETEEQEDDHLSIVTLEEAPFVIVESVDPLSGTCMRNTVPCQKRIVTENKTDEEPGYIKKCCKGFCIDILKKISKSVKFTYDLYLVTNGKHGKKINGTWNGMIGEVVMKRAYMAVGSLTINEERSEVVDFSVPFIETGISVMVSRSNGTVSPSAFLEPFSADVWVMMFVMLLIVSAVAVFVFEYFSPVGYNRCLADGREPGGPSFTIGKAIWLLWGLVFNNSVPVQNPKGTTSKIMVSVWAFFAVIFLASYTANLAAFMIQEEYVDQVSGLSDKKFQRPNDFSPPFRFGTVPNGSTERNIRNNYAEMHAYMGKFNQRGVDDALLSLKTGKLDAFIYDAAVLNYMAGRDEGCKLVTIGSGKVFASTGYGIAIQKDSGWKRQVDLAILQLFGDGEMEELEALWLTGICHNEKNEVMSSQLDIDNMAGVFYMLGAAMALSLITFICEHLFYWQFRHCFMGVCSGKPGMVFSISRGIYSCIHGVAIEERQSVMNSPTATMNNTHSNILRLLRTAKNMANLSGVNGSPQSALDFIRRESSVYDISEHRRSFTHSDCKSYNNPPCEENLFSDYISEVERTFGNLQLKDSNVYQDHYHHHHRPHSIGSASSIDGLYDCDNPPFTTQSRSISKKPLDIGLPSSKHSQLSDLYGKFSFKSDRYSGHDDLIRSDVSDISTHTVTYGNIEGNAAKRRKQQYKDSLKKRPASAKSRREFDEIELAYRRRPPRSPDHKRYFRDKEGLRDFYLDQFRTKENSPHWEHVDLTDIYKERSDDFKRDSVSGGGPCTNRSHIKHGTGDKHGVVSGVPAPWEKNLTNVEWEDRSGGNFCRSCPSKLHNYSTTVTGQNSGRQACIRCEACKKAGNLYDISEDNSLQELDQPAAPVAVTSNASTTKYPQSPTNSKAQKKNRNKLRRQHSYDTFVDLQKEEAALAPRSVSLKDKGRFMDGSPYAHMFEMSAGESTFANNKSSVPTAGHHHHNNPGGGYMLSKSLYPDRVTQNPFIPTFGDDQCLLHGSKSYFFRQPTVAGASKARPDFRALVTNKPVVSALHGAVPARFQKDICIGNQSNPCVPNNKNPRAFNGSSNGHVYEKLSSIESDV", "assay": "FLIPR calcium assay, quinolinic acid, gentamicin, dextromethadone (Example 5 Part II), GluN1-GluN2B-CHO", "format": "cell-based", "conditions": "for calcium response (mean±SEM): GluN2B, n=42; for Response at max conc (%): quinolinic acid CRC, max 1,000 μM", "description": "as §1, §2, §3, §4, §5, §6, §7, §8, §9"}, "[3]": {"target": "rat GluN1-GluN2B receptor (Rattus norvegicus, UniProt P35439+Q00960)", "conditions": "Banke and Traynelis, 2003; read-out: potency; cited from earlier work"}, "[4]": {"target": "T3, human NMDA receptor GluN1-GluN2C (Homo sapiens, UniProt Q05586+Q14957)", "T3 construct": "expressed in transfected cells; host or cells: CHO", "T3 sequence (Q14957 20-1233, other chains not shown)": "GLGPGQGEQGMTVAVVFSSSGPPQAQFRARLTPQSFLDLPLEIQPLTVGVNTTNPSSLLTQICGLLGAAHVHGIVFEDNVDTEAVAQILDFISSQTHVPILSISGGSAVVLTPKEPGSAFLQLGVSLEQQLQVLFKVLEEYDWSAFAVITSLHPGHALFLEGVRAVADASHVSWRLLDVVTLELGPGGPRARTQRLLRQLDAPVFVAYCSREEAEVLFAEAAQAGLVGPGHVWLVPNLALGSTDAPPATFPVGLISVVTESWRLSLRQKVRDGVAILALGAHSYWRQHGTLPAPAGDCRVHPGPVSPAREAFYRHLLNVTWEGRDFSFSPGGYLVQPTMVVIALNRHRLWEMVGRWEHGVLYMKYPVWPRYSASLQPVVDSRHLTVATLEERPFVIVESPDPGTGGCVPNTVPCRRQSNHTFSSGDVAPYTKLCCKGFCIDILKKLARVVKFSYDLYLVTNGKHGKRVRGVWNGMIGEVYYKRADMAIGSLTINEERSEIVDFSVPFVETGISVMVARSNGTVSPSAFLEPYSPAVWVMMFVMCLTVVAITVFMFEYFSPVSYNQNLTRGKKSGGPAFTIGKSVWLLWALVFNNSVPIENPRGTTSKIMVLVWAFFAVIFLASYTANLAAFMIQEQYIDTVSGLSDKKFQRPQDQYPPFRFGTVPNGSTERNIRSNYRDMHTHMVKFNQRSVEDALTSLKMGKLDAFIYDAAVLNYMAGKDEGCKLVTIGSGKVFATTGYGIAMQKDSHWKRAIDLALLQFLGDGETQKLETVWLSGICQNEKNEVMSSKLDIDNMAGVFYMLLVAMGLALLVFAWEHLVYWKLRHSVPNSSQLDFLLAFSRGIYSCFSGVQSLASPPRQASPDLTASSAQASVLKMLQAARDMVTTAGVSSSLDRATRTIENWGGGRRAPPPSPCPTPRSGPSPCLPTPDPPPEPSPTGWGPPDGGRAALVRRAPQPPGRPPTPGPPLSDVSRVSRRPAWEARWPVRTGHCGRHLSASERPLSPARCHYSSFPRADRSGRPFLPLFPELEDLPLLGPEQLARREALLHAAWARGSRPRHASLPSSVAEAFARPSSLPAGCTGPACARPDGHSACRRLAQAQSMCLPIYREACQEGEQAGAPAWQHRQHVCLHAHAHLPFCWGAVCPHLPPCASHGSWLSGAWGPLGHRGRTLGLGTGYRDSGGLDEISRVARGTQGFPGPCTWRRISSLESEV", "assay": "FLIPR calcium assay, quinolinic acid, gentamicin, dextromethadone (Example 5 Part II), GluN1-GluN2C-CHO", "format": "cell-based", "conditions": "for calcium response (mean±SEM): GluN2C, n=42", "description": "as §1, §2, §3, §4, §5, §6, §7, §8, §9"}, "[5]": {"target": "T4, human NMDA receptor GluN1-GluN2D (Homo sapiens, UniProt O15399+Q05586)", "T4 construct": "expressed in transfected cells; host or cells: CHO", "assay": "FLIPR calcium assay, quinolinic acid, gentamicin, dextromethadone (Example 5 Part II), GluN1-GluN2D-CHO", "format": "cell-based", "conditions": "for calcium response (mean±SEM): GluN2D, n=42", "description": "as §1, §2, §3, §4, §5, §6, §7, §8, §9"}, "[6]": {"conditions": "0.04 μM L-Glu + 100 μM QA, 10 μM glycine"}, "[7]": {"conditions": "0.04 μM L-Glu + 1000 μM QA, 10 μM glycine"}, "[8]": {"conditions": "0.2 μM L-Glu + 100 μM QA, 10 μM glycine"}, "[9]": {"conditions": "0.2 μM L-Glu + 1000 μM QA, 10 μM glycine"}, "[10]": {"conditions": "100 μM QA, 10 μM glycine, 100% = 10 μM L-glutamate plus 10 μM glycine"}, "[11]": {"conditions": "1000 μM QA, 10 μM glycine, 100% = 10 μM L-glutamate plus 10 μM glycine"}, "[12]": {"conditions": "1000 μM QA, 10 μM glycine, 100% = 10 μM L-glutamate plus 10 μM glycine, listed as QA"}, "[13]": {"conditions": "CRC in presence of 10 μM glycine"}, "[14]": {"conditions": "quinolinic acid CRC, max 1,000 μM, 10 μM glycine"}}, "data": [{"smiles": "O=C(O)c1cccnc1C(=O)O", "note": "[Quinolinic acid]", "values": [{"measurement": "calcium response (mean±SEM)", "setting": "[1]; [6]", "result": "7.5 ± 0.4"}, {"measurement": "calcium response (mean±SEM)", "setting": "[1]; [7]", "result": "41 ± 1.0"}, {"measurement": "calcium response (mean±SEM)", "setting": "[1]; [8]", "result": "26 ± 0.6"}, {"measurement": "calcium response (mean±SEM)", "setting": "[1]; [9]", "result": "46 ± 0.9"}, {"measurement": "EC50", "setting": "[1]; 10 μM glycine, fit with maximal response constrained at 75%, read-out: EC50", "result": 850, "unit": "µM"}, {"measurement": "% effect on calcium entry, 100 QA", "setting": "[1]; [10]", "result": "2.5 ± 0.3", "unit": "%"}, {"measurement": "calcium response (mean±SEM)", "setting": "[1]; 1000 μM QA, 10 μM glycine", "result": "41 ± 1.2"}, {"measurement": "% effect on calcium entry, 1000 QA", "setting": "[1]; [11]", "result": "41±1.1", "unit": "%"}, {"measurement": "% effect on calcium entry, 1000 QA", "setting": "[1]; [12]", "result": "41 ± 1.2", "unit": "%"}, {"measurement": "% effect on calcium entry, 1000 QA", "setting": "[1]; 1000 μM QA, 10 μM glycine, 100% = 10 μM L-glutamate plus 10 μM glycine, listed as quinolinic acid", "result": "41±1.2", "unit": "%"}, {"measurement": "Minimal response (%)", "setting": "[1]; [13]", "result": "−1.9", "unit": "%"}, {"measurement": "Response at max conc (%)", "setting": "[1]; [14]", "result": 40, "unit": "%"}, {"measurement": "calcium response (mean±SEM)", "setting": "[2]; [6]", "result": "3.7 ± 1.3"}, {"measurement": "calcium response (mean±SEM)", "setting": "[2]; [7]", "result": "27 ± 2.2"}, {"measurement": "calcium response (mean±SEM)", "setting": "[2]; [8]", "result": "27 ± 0.8"}, {"measurement": "calcium response (mean±SEM)", "setting": "[2]; [9]", "result": "27 ± 1.5"}, {"measurement": "EC50", "setting": "[2]; 10 μM glycine, read-out: EC50", "result": 170, "unit": "µM"}, {"measurement": "% effect on calcium entry, 100 QA", "setting": "[2]; [10]", "result": "0.9 ± 0.7", "unit": "%"}, {"measurement": "calcium entry in CRC", "setting": "[2]; 333 μM quinolinic acid, 10 μM glycine", "result": "23±3.0", "unit": "%"}, {"measurement": "calcium response (mean±SEM)", "setting": "[2]; 1000 μM QA, 10 μM glycine", "result": "37 ± 1.3"}, {"measurement": "% effect on calcium entry, 1000 QA", "setting": "[2]; [11]", "result": "37±1.3", "unit": "%"}, {"measurement": "% effect on calcium entry, 1000 QA", "setting": "[2]; [12]", "result": "37 ± 1.3", "unit": "%"}, {"measurement": "Minimal response (%)", "setting": "[2]; [13]", "result": "−2.1", "unit": "%"}, {"measurement": "Response at max conc (%)", "setting": "[2]; 10 μM glycine", "result": 25, "unit": "%"}, {"measurement": "Response at max conc (%)", "setting": "[2]; 10 μM glycine, listed as quinolinic acid", "result": "25±2.1", "unit": "%"}, {"measurement": "EC50", "setting": "[3]", "result": "518 ± 35", "unit": "µM"}, {"measurement": "calcium response (mean±SEM)", "setting": "[4]; [6]", "result": "−2.0 ± 1.1"}, {"measurement": "calcium response (mean±SEM)", "setting": "[4]; [7]", "result": "−4.1 ± 0.9^"}, {"measurement": "calcium response (mean±SEM)", "setting": "[4]; [8]", "result": "27 ± 1.1"}, {"measurement": "calcium response (mean±SEM)", "setting": "[4]; [9]", "result": "6.6 ± 0.8"}, {"measurement": "EC50", "setting": "[4]; 10 μM glycine, read-out: EC50", "result": "> 1000", "unit": "µM"}, {"measurement": "% effect on calcium entry, 100 QA", "setting": "[4]; [10]", "result": "−2.8 ± 0.6", "unit": "%"}, {"measurement": "calcium response (mean±SEM)", "setting": "[4]; 1000 μM QA, 10 μM glycine", "result": "−5.5 ± 0.4^"}, {"measurement": "% effect on calcium entry, 1000 QA", "setting": "[4]; [11]", "result": "−5.5 ± 0.4^ %"}, {"measurement": "Minimal response (%)", "setting": "[4]; [13]", "result": "−4.0", "unit": "%"}, {"measurement": "intracellular calcium increase elicited by 0.2 μM L-glutamate", "setting": "[4]; plus 1000 μM quinolinic acid, 10 μM glycine", "result": "6.6±0.8", "unit": "%"}, {"measurement": "Response at max conc (%)", "setting": "[4]; [14]", "result": "−4.0", "unit": "%"}, {"measurement": "calcium response (mean±SEM)", "setting": "[5]; [6]", "result": "26 ± 1.2"}, {"measurement": "calcium response (mean±SEM)", "setting": "[5]; [7]", "result": "53 ± 2.3"}, {"measurement": "calcium response (mean±SEM)", "setting": "[5]; [8]", "result": "93 ± 1.0"}, {"measurement": "calcium response (mean±SEM)", "setting": "[5]; [9]", "result": "58 ± 1.6"}, {"measurement": "EC50", "setting": "[5]; 10 μM glycine, read-out: EC50", "result": 520, "unit": "µM"}, {"measurement": "% effect on calcium entry, 100 QA", "setting": "[5]; [10]", "result": "−0.1 ± 0.4", "unit": "%"}, {"measurement": "calcium response (mean±SEM)", "setting": "[5]; 1000 μM QA, 10 μM glycine", "result": "55 ± 1.1"}, {"measurement": "% effect on calcium entry, 1000 QA", "setting": "[5]; [11]", "result": "55±1.1", "unit": "%"}, {"measurement": "% effect on calcium entry, 1000 QA", "setting": "[5]; [12]", "result": "55 ± 1.1", "unit": "%"}, {"measurement": "Minimal response (%)", "setting": "[5]; [13]", "result": "−1.3", "unit": "%"}, {"measurement": "Response at max conc (%)", "setting": "[5]; [14]", "result": 50, "unit": "%"}]}]}
